# Where “and” joins values, the source holds several entries; their conditions need not be identical. Equal entries are not always repeated. Where two headings read alike, the source gives them in different places.
# Experiments:
# [1] = test system: dog hepatocytes; test: Metabolite profiling in cryopreserved hepatocytes (in vitro MetID); format: in vitro ADME; settings: 1 µM SYN2, 37 °C
# Protocol: (§1) The metabolite profiling and characterization experiment of SYN2 molecule (in vitro MetID, Admescope) was conducted to evaluate potential metabolic pathways. In order to characterize the metabolites of SYN2, the compound was incubated in cryopreserved rat, dog and human hepatocytes. Prior to the incubation, the hepatocytes were thawed, suspended in Williams medium E and then centrifuged to receive a target density of about 1 million cells/ml. A SYN2 solution of 1 µM was then added to the hepatocyte suspension and incubated at 37 °C for 0, 30 and 60 min. The incubations were stopped by the addition of acetonitrile, then frozen and centrifuged to remove precipitated proteins. Supernatants were then analysed with ultra-performance liquid chromatography (UPLC) and high-resolution mass spectrometry (HRMS).
# (§2) Compound Discoverer (CD) was used for data mining with manual confirmation for metabolite profiling and characterization.
# [2] = test system: human hepatocytes; test: as above; format: in vitro ADME; settings: 1 µM SYN2, 37 °C
# Protocol: as §1, §2
# [3] = test system: rat hepatocytes; test: as above; format: in vitro ADME; settings: 1 µM SYN2, 37 °C
# Protocol: as §1, §2
# [4] = cited from earlier work
# [5] = cited from earlier work; for accumulation in cardiac tissue / heart/liver ratio / heart/lungs ratio: 1 h post-injection
# [6] = available SPECT and PET tracers
# [7] = human studies, exercise stress subjects
# [8] = human studies, exercise stress subjects, listed as [^18F]flurpiridaz
compound,measurement,setting,value
CNc1ccc2cc3ccc(N(C)C)cc3[n+](CCF)c2c1 [M1],"Relative abundance of metabolites calculated as % of parent (SYN2), Dog",[1]; 30 min,34 % of parent
same,"Relative abundance of metabolites calculated as % of parent (SYN2), Dog",[1]; 60 min,58 % of parent
same,"Relative abundance of metabolites calculated as % of parent (SYN2), Human",[2]; 30 min,10 % of parent
same,"Relative abundance of metabolites calculated as % of parent (SYN2), Human",[2]; 60 min,19 % of parent
same,"Relative abundance of metabolites calculated as % of parent (SYN2), Rat",[3]; 30 min,94 % of parent
same,"Relative abundance of metabolites calculated as % of parent (SYN2), Rat",[3]; 60 min,137 % of parent
CNc1ccc2cc3ccc(N)cc3[n+](CCF)c2c1 [M3],"Relative abundance of metabolites calculated as % of parent (SYN2), Dog",[1]; 30 min,9 % of parent
same,"Relative abundance of metabolites calculated as % of parent (SYN2), Dog",[1]; 60 min,46 % of parent
same,"Relative abundance of metabolites calculated as % of parent (SYN2), Human",[2]; 30 min,1 % of parent
same,"Relative abundance of metabolites calculated as % of parent (SYN2), Human",[2]; 60 min,3 % of parent
same,"Relative abundance of metabolites calculated as % of parent (SYN2), Rat",[3]; 30 min,27 % of parent
same,"Relative abundance of metabolites calculated as % of parent (SYN2), Rat",[3]; 60 min,666 % of parent
CN(C)c1ccc2cc3ccc(N(C)C)cc3nc2c1 [M4],"Relative abundance of metabolites calculated as % of parent (SYN2), Dog",[1]; 30 min,Trace
same,"Relative abundance of metabolites calculated as % of parent (SYN2), Human",[2]; 30 min,1 % of parent
same,"Relative abundance of metabolites calculated as % of parent (SYN2), Human",[2]; 60 min,1 % of parent
same,"Relative abundance of metabolites calculated as % of parent (SYN2), Rat",[3]; 30 min,Trace
[13NH3] [[^13N]Ammonia],Effective dose,[4]; [6],0.002 mSv/MBq
[15OH2] [[^15O]H2O],Effective dose,[4]; [6],0.0011 mSv/MBq
CC(C)(C)n1ncc(OCc2ccc(COCC[18F])cc2)c(Cl)c1=O [[^18F]Flurpiridaz],accumulation in cardiac tissue,[5],3.3 ± 0.3 %ID/g
same,heart/liver ratio,[5],3.7 ± 0.2
same,heart/lungs ratio,[5],12.7 ± 1.4
same,heart/blood ratio,[5],13
same,Effective dose,[4]; [6],0.015 mSv/MBq
same,"Absorbed dose per administrated activity, Adrenals",[4]; [7],1.40E-02 mSv/MBq
same,"Absorbed dose per administrated activity, Brain",[4]; [7],1.10E-02 mSv/MBq
same,"Absorbed dose per administrated activity, Breasts",[4]; [7],1.00E-02 mSv/MBq
same,"Absorbed dose per administrated activity, Gallbladder Wall",[4]; [7],1.50E-02 mSv/MBq
same,"Absorbed dose per administrated activity, Heart Wall",[4]; [7],3.90E-02 mSv/MBq
same,"Absorbed dose per administrated activity, Kidneys",[4]; [7],2.70E-02 mSv/MBq
same,"Absorbed dose per administrated activity, Liver",[4]; [7],1.50E-02 mSv/MBq
same,"Absorbed dose per administrated activity, Lower Large Intestine Wall",[4]; [7],1.40E-02 mSv/MBq
same,"Absorbed dose per administrated activity, Lungs",[4]; [7],1.20E-02 mSv/MBq
same,"Absorbed dose per administrated activity, Muscle",[4]; [7],1.20E-02 mSv/MBq
same,"Absorbed dose per administrated activity, Osteogenic Cells",[4]; [7],2.00E-02 mSv/MBq
same,"Absorbed dose per administrated activity, Ovaries",[4]; [7],1.40E-02 mSv/MBq
same,"Absorbed dose per administrated activity, Pancreas",[4]; [7],1.50E-02 mSv/MBq
same,"Absorbed dose per administrated activity, Red Marrow",[4]; [7],1.50E-02 mSv/MBq
same,"Absorbed dose per administrated activity, Skin",[4]; [7],9.00E-03 mSv/MBq
same,"Absorbed dose per administrated activity, Small Intestine",[4]; [7],1.40E-02 mSv/MBq
same,"Absorbed dose per administrated activity, Spleen",[4]; [7],1.30E-02 mSv/MBq
same,"Absorbed dose per administrated activity, Stomach Wall",[4]; [7],2.40E-02 mSv/MBq
same,"Absorbed dose per administrated activity, Testes",[4]; [7],1.10E-02 mSv/MBq
same,"Absorbed dose per administrated activity, Thymus",[4]; [7],1.30E-02 mSv/MBq
same,"Absorbed dose per administrated activity, Thyroid",[4]; [7],1.40E-02 mSv/MBq
same,"Absorbed dose per administrated activity, Total Body",[4]; [7],1.20E-02 mSv/MBq
same,"Absorbed dose per administrated activity, Upper Large Intestine Wall",[4]; [7],1.40E-02 mSv/MBq
same,"Absorbed dose per administrated activity, Urinary Bladder Wall",[4]; [7],1.60E-02 mSv/MBq
same,"Absorbed dose per administrated activity, Uterus",[4]; [7],1.40E-02 mSv/MBq
same,Effective Dose Equivalent,[4]; [7],1.60E-02 mSv/MBq
same,Effective dose,[4]; [7],1.50E-02 mSv/MBq
same,"Absorbed dose per administrated activity, Heart Wall",[4]; [8],0.0390 mSv/MBq and 0.039 mSv/MBq
same,"Absorbed dose per administrated activity, Kidneys",[4]; [8],0.027 mSv/MBq
same,"Absorbed dose per administrated activity, Stomach Wall",[4]; [8],0.024 mSv/MBq
same,Effective dose,[4]; [8],0.0150 mSv/MBq
[82Rb+].[Cl-] [[^82Rb]Rubidium chloride],Effective dose,[4]; [6],0.0011 mSv/MBq
[C-]#[N+]CC(C)(C)OC.[C-]#[N+]CC(C)(C)OC.[C-]#[N+]CC(C)(C)OC.[C-]#[N+]CC(C)(C)OC.[C-]#[N+]CC(C)(C)OC.[C-]#[N+]CC(C)(C)OC.[Tc] [[^99mTc]Tc-sestamibi],accumulation in cardiac tissue,[5],2.0 ± 0.3 %ID/g
same,heart/liver ratio,[5],2.4 ± 0.2
same,heart/lungs ratio,[5],5.9 ± 0.5
same,Effective dose,[4]; [6],0.0079 mSv/MBq
same,absorbed dose in kidneys,[4],0.036 mSv/MBq
CCOCCP(CCOCC)CCP(CCOCC)CCOCC.CCOCCP(CCOCC)CCP(CCOCC)CCOCC.[O]=[99Tc+]=[O] [[^99mTc]Tc-tetrofosmin],Effective dose,[4]; [6],0.0069 mSv/MBq
[Cl][201Tl] [[^201Tl]Thallium chloride],Effective dose,[4]; [6],0.14 mSv/MBq
